The target of test [1] is Monoamine transporters; Norepinephrine & dopamine (Homo sapiens) (UniProt Q01959+P23975). Kind of test: Ratio for uptake of NE over DA. It counts as protein assay.
Test [2] concerns the target T1, Sodium-dependent dopamine transporter (Homo sapiens, UniProt Q01959). Nature of the test: Inhibition of [3H]DA uptake.
The target of test [3] is T2, Sodium-dependent noradrenaline transporter (Homo sapiens, UniProt P23975). Kind of test: Inhibition of [3H]NE uptake.
Test [4] in a line: Selectivity for NET over DAT. It counts as protein assay. The note with it: Homo sapiens.
For test [5], the target named is T3, Monoamine transporters; serotonin & dopamine (Homo sapiens) (UniProt P31645+Q01959). Nature of the test: Selectivity for SERT over DAT. Type of test: protein assay.
T3 sequence (P31645 whole entry, looked up): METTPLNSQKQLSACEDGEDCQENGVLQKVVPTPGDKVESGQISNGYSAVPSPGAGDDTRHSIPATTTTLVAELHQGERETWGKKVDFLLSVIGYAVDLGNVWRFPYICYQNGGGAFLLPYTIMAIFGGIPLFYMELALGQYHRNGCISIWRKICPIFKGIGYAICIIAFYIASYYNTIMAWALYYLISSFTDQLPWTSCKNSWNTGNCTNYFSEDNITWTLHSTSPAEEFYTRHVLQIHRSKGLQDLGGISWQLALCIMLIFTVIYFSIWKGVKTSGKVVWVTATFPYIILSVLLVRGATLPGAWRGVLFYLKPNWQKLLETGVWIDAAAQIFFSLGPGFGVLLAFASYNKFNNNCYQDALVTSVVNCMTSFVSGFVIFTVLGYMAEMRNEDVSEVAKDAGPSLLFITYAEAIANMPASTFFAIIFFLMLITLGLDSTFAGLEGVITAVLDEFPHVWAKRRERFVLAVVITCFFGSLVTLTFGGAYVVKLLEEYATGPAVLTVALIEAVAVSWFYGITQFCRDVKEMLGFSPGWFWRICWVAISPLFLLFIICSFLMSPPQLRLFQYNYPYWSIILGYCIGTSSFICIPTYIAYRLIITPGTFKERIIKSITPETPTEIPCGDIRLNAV
T3 sequence (Q01959 whole entry, looked up): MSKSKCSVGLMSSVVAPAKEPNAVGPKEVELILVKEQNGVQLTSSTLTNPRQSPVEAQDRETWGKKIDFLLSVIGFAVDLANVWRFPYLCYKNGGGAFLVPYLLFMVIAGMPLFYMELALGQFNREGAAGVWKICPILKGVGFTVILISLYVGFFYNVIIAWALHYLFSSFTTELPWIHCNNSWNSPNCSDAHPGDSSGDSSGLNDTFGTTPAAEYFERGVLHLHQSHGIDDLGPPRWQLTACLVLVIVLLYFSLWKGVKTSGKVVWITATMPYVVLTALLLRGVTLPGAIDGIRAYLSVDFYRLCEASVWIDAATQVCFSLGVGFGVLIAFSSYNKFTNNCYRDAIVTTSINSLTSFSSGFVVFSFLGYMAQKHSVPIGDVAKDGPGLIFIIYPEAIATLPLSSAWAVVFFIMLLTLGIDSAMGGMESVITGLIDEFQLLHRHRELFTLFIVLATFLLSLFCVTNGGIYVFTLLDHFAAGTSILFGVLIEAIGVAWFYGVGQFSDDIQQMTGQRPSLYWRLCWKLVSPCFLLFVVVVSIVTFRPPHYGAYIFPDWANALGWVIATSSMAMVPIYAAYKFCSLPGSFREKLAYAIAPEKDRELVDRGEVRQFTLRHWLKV
The target of test [6] is T2, Sodium-dependent noradrenaline transporter. Kind of test: Displacement of [3H]nisoxetine from NET. A general note: In a radioligand displacement assay an active substance lowers the binding of a labelled ligand.
The target of test [7] is T1, Sodium-dependent dopamine transporter. Nature of the test: Displacement of [125I]RTI-55 from DAT.
In test [8] the target is T4, Sodium-dependent serotonin transporter (Homo sapiens, UniProt P31645). Kind of test: Inhibition of [3H]5-HT uptake.
T4 sequence (P31645 whole entry): as the sequence (P31645 whole entry, looked up) above
Test [9] deals with T3, Monoamine transporters; serotonin & dopamine (Homo sapiens). Kind of test: Ratio for uptake of 5HT over DA. Type of test: protein assay.
Test [10] concerns the target T4, Sodium-dependent serotonin transporter. Nature of the test: Displacement of [125I]RTI-55 from SERT.

The source of these data is ChEMBL document CHEMBL1138151, “Design and synthesis of promiscuous high-affinity monoamine transporter ligands: unraveling transporter selectivity” (J Med Chem, 2006).

A word on the Ki: it is the dissociation constant of the complex between target and ligand, obtained from inhibition or displacement.

SMILES strings stand for the structures. Bounds are passed on as bounds.

T1 sequence (Q01959 whole entry): as the sequence (Q01959 whole entry, looked up) above
Sequence of Monoamine transporters; Norepinephrine & dopamine (Homo sapiens) (P23975 whole entry, looked up): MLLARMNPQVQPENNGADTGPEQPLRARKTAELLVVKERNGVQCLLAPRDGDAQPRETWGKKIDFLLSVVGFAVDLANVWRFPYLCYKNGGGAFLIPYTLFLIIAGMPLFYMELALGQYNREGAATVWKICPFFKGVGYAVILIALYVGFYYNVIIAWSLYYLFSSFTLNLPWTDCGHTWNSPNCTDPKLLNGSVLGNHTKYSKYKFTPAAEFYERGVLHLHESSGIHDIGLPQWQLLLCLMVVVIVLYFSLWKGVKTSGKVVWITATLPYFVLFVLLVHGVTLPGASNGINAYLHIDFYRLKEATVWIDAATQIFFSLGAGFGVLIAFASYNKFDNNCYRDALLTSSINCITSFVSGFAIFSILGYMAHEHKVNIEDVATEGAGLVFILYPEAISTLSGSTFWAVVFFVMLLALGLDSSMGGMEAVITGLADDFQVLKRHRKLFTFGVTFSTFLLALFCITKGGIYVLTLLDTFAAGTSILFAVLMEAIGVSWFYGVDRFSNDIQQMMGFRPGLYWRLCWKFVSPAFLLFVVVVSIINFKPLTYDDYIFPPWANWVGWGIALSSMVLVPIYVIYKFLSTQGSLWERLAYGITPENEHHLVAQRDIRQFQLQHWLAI
Sequence of Monoamine transporters; Norepinephrine & dopamine (Homo sapiens) (Q01959 whole entry, looked up): as the sequence (Q01959 whole entry, looked up) above
T2 sequence (P23975 whole entry): as the sequence (P23975 whole entry, looked up) above

`O[C@H](Cc1ccccc1)CN1CCC(CCOC(c2ccc(F)cc2)c2ccc(F)cc2)CC1`: the Ratio Ki came to 84 in test [1], 240 in test [4], 18 in [5] and 24 in test [9]. Besides, the Ki worked out at 1.7 nM in test [2]; 143 nM in test [3]; 1220 nM in test [6]; 5.1 nM in test [7]; 41 nM in test [8]; 91 nM in test [10].
As for `O[C@H](CCN1CCC(CCOC(c2ccc(F)cc2)c2ccc(F)cc2)CC1)c1ccccc1`, the Ratio Ki stood at 394 in [4] and 51 in [5]. For the same molecule, the Ki turned out to be 330 nM in test [6], 0.8 nM in test [7] and 43 nM in test [10].
In the same order, the values of `O[C@@H](CCN1CCC(CCOC(c2ccc(F)cc2)c2ccc(F)cc2)CC1)c1ccccc1` are 515, 26, 440 nM, 0.9 nM and 22 nM.
In the case of `N[C@H](Cc1ccccc1)CN1CCC(CCOC(c2ccc(F)cc2)c2ccc(F)cc2)CC1`, the Ratio Ki came to 24 in [1], 78 in test [4], 6 in [5] and 13 in test [9]. Besides, the Ki in [2] was found to be 17 nM; in [3], 402 nM; in test [6] it was 941 nM; in [7] it was 12 nM; in test [8] it was 229 nM; in test [10] it was 68 nM.
For `C[C@@H](CCN1CCC(CCOC(c2ccc(F)cc2)c2ccc(F)cc2)CC1)c1ccccc1`, the Ratio Ki in test [1] came out at 19; in test [4] it was 259; in test [5], 22; in [9], 36. The Ki in [2] amounted to 2.1 nM; in test [3] it was 40 nM; in test [6] it was 340 nM; in [7], 1.3 nM; in test [8], 75 nM; in test [10], 30 nM.
For the molecule `O[C@@H](CCc1ccccc1)CN1CCC(CCOC(c2ccc(F)cc2)c2ccc(F)cc2)CC1`, the Ratio Ki in test [4] came out at 457; in test [5], 24. For the same molecule, the Ki was found to be 736 nM in [6], 1.6 nM in [7] and 38 nM in test [10].
In the same order, the values of `C[C@H](Cc1ccccc1)CN1CCC(CCOC(c2ccc(F)cc2)c2ccc(F)cc2)CC1` are 118, 61, 103 nM, 0.9 nM and 53 nM.
For the molecule `N[C@@H](Cc1ccccc1)CN1CCC(CCOC(c2ccc(F)cc2)c2ccc(F)cc2)CC1`, the Ratio Ki in test [1] is 26; in test [4], 135; in test [5] it was 12; in test [9], 18. Also, the Ki was determined as 13 nM in test [2]; 338 nM in test [3]; 851 nM in test [6]; 6.3 nM in [7]; 228 nM in test [8]; 76 nM in test [10].
As to `O[C@H](CCc1ccccc1)CN1CCC(CCOC(c2ccc(F)cc2)c2ccc(F)cc2)CC1`, the Ratio Ki turned out to be 56 in test [1], 215 in test [4], 6 in test [5] and 14 in [9]. Besides, the Ki in test [2] worked out at 1.4 nM; in test [3], 79 nM; in test [6], 460 nM; in test [7], 2.1 nM; in test [8], 19 nM; in test [10] it was 13 nM.
For `O[C@@H](Cc1ccccc1)CN1CCC(CCOC(c2ccccc2)c2ccccc2)CC1`, the Ratio Ki in test [4] came to 359; in [5] it was 332. The Ki in test [6] was 485 nM; in test [7], 1.4 nM; in test [10] it was 450 nM.
In the same order, the values of `Fc1ccc(C(OCCC2CCN(C[C@@H]3C[C@H]3c3ccccc3)CC2)c2ccc(F)cc2)cc1` are 1890, 32, 947 nM, 0.5 nM and 16 nM.
In the same order, the values of `Fc1ccc(C(OCCC2CCN(C[C@H]3C[C@@H]3c3ccccc3)CC2)c2ccc(F)cc2)cc1` are 256, 97, 359 nM, 1.4 nM and 136 nM.
Regarding `C[C@@H](Cc1ccccc1)CN1CCC(CCOC(c2ccc(F)cc2)c2ccc(F)cc2)CC1`, the Ratio Ki in [1] was 42; in test [4] it was 47; in [5], 13; in [9], 33. Also, the Ki stood at 3.8 nM in test [2]; 160 nM in test [3]; 380 nM in test [6]; 8 nM in test [7]; 124 nM in test [8]; 100 nM in test [10].
Take `Fc1ccc(C(OCCC2CCN(CC3=Cc4ccccc4CC3)CC2)c2ccc(F)cc2)cc1`: the Ratio Ki in test [4] amounted to 40; in test [5], 118. Also, the Ki in [6] is 43 nM; in test [7] it was 1.1 nM; in [10], 127 nM.
In the same order, the values of `O[C@@H](CCN1CCC(CCOC(c2ccccc2)c2ccccc2)CC1)c1ccccc1` are 101, 107, 210 nM, 2.1 nM and 230 nM.
In the same order, the values of `O[C@H](CCN1CCC(CCOC(c2ccccc2)c2ccccc2)CC1)c1ccccc1` are over 3200, 158, over 5600 nM, 1.8 nM and 280 nM.
Turning to `O[C@@H](Cc1ccccc1)CN1CCC(CCOC(c2ccc(F)cc2)c2ccc(F)cc2)CC1`, the results for the Ratio Ki in test [4] and in [5] were 902 and 205, respectively. Moreover, the Ki in test [6] came to 361 nM; in test [7] it was 0.4 nM; in test [10], 82 nM.
In the same order, the values of `O[C@H](Cc1ccccc1)CN1CCC(CCOC(c2ccccc2)c2ccccc2)CC1` are 114, 42, 785 nM, 6.9 nM and 286 nM.
For the molecule `C[C@H](CCN1CCC(CCOC(c2ccc(F)cc2)c2ccc(F)cc2)CC1)c1ccccc1`, the Ratio Ki in [4] was found to be 253; in test [5] it was 26. Moreover, the Ki in [6] is 560 nM; in [7], 2.2 nM; in test [10], 58 nM.
